Results published in US6500813B1, “Ophthalmic composition containing active vitamin D” (priority 1995, dated 2002).

Assays:
[1] = test system: laser-irradiated cornea; assay: Test Example 3: corneal turbidity rating after excimer laser (PTK) irradiation in rabbits; assay type: in vivo, Japan white rabbits; details: 10^−7% solution, 20 μl/dose, 3 times/day over 14 days
Description: In this test, 8 Japan white rabbits each weighing 2 kg were used. A laser beam was focused on the corneal center of the right eye of each animal using an excimer laser oscillator (available from Summit Technology Co. U.S.) under anesthesia. The laser beam irradiation was carried out according to the surface-incision mode (PTK), i.e., at an energy density of 165 mj/cm^2, a rate of incision to a depth of 0.25 μm/pulse, a diameter of the incised circular area of 4.5 mm and an irradiated pulse number of 300.
These 8 test animals which had been irradiated with the laser beam were, at random, divided into two groups each comprising 4 animals, one of which constituted a drug-administered group and the other of which constituted a control group. […]
After 24 hours from the laser irradiation, the drug-administered group and the control-group were treated by dropping, in the right eye, a 10^−7% active vitamin D-containing solution [22-oxa-1β,25-dihydroxy vitamin D3: OCT (available from Chugai Pharmaceutical Co., Ltd.)] and the OCT solvent base, respectively, at 20 μl/dose and 3 times/day over 14 days. After 7 and 15 days from the irradiation, the extent of the turbidity of each cornea was evaluated on the basis of the findings for the 8 animals observed under a slit lamp microscope. […]

[2] = test system: lens capsule, aqueous humor and intraocular lens; assay: Test Example 2: lens removal by ultrasonic emulsification and aspiration with intraocular lens transplantation in rabbits, slit lamp observation of turbidity; assay type: in vivo, Japan white house rabbits; details: for fibrin deposition in the anterior chamber: versus sesame oil control (animal C)
Description: In this test, three Japan white house rabbits each weighing 2 kg were used. After anesthetizing each animal by intramuscularly injecting an analgesic-anesthetic at the femoral regions thereof and by simultaneously dropping a local anesthetic in the eyes, the sclerocornea of each animal was dissected over a length of 3.5 mm, followed by excising a circular piece of the arterior capsule at a diameter of about 5 mm from the lens capsule under perfusion of the ophthalmic buffer solution BSS, removal of the lens nuclei and the cortex by the ultrasonic emulsification and aspiration technique, swelling the lens capsule by injecting a viscoelastic substance, then widening the incised port of the sclerocornea to about 7 mm and transplantation, into the lens capsule, of a poly(methyl methacrylate) intraocular lens provided with an optical part having a diameter of 6 mm. After the removal of the viscoelastic substance under vacuum suction, the incised wound of the sclerocornea was sutured with three stitches using a 9-0 nylon suture to thus complete the operation. After the completion of the operation, an eye drop and an ointment containing an antibiotic agent were administered to the conjunctiva. The right eyes of these three animals were subjected to the ultrasonic emulsification and aspiration technique and the transplantation of an intraocular lens.
One (A) out of these three animals was treated with a calcitriol solution in a rate of 1 to 2 drops/dose/day. The calcitriol solution used was prepared by dissolving and diluting calcitriol (1α,25-dihydroxy vitamin D) in ethanol and then further diluting (1:100) the resulting dilute solution, to a calcitriol concentration of 0.5 μg/ml, with an ophthalmic oil base consisting of purified sesame oil. One (B) out of the three animals was treated by orally administering the calcitriol solution in a rate of 1 ml/dose/day using a dropping pipette. The remaining one (C) out of the three animals was treated by dropping ophthalmic purified sesame oil free of any calcitriol in the right eye in a rate of 1 to 2 drops/dose/day. After the mydriasis at 1, 4, 7, 14 and 28 days from the operation, the lens capsule, aqueous humor and intraocular lens for each animal were inspected for the turbidity through the observation under a slit lamp microscope.

[3] = test system: laser-irradiated cornea (corneal epithelial cells); assay: Test Example 1: excimer laser (PTK) corneal incision in rabbits, slit lamp and light microscope observation; assay type: in vivo, Japan white rabbits
Description: In this test, 6 Japan white rabbits each weighing 2 kg were used. After anesthetizing each animal by intramuscularly injecting an analgesic-anesthetic at the femoral regions thereof and by simultaneously dropping local anesthetic in the eyes, a laser beam was focused on the corneal center of the right eye using an excimer laser oscillator (available from Summit Technology Co. U.S.). The laser beam irradiation was carried out according to the surface-incision mode (PTK), i.e., at an energy density of 165 mj/cm^2, a rate of incision to a depth of 0.25 μm/pulse, an incised surface diameter of 4.5 mm and a pulse number of 300.
After the laser beam irradiation, an eye drop and an ointment containing an antibiotic agent were administered to the eye. Three (Group A) out of these six animals were treated by dropping, in the right eye, an active vitamin D-containing solution (1 α-monohydroxy vitamin D: 0.01 μg/drop or 0.5 μg/ml; an alpha calcidol solution) in a rate of one drop (0.02 ml)/dose/day, starting from 24 hours after the laser beam irradiation. On the other hand, the remaining three (Group B) out of these six animals constituted a control group and were treated in the same manner by dropping, in the right eye, an ophthalmic buffer solution BSS at a rate of one drop/dose/day.
After 4, 7 and 12 days from the laser beam irradiation, the right eyes of animals in Group A and Group B (one animal each) were observed under a slit lamp microscope, followed by slaughtering one animal in each Group and then enucleation of the eyeballs. The cornea was removed from the sclerocornea of each eyeball, followed by fixing through immersion in a Carnoa's solution for 4 hours, dehydration in dry ethanol, paraffin-embedded to form a corneal slice with a thickness of 4 μm, removing paraffin by xylol, carrying out the hematoxylin-eosin staining and/or PAS staining and observation of the corneal slice under a light microscope.

[4] = animal A, eye drop, after 7 days from the operation

Q: For `C=C1/C(=C\C=C2/CCC[C@]3(C)[C@@H]([C@H](C)OCCC(C)(C)O)CC[C@@H]23)C[C@@H](O)C[C@@H]1O` [OCT, 22-oxa-1β,25-dihydroxy vitamin D3], which “degree of turbidity relative to that observed for the control group” value [1] is on record?
A: about ½

Q: What about the “degree of corneal turbidity, rating 0 (no turbidity) to 4 (complete opacification), average of four animals” value ([1]; right eye, evaluated after 7 and 15 days, control group 3.5) of the same compound?
A: 2.0

Q: `C=C1/C(=C\C=C2/CCC[C@]3(C)[C@@H]([C@H](C)CCCC(C)(C)O)CC[C@@H]23)C[C@@H](O)C[C@@H]1O` [calcitriol, 1α,25-dihydroxy vitamin D] was tested. Which “side effect (bleeding, fibrin-deposition, corneal haze/opacity, intraocular inflammation)” value ([2]; Test Example 2, eye drop or oral) did it give?
A: not observed any side effect

Q: What about the “transparency, eye drop (animal A) compared with oral (animal B)” value ([2]; after 28 days from the operation) of the same compound?
A: better than that observed for the animal B

Q: And the posterior synechia ([2]; animal A, eye drop)?
A: did not cause any posterior synechia

Q: What about the “fibrin deposition in the anterior chamber” value ([2]; animal A, eye drop 0.5 μg/ml in sesame oil, 1 to 2 drops/dose/day) of the same compound?
A: very low as compared with that observed for the animal C

Q: And the “transparency of the anterior capsule” value [2, 4]?
A: maintained desired transparency

Q: What about the “wrinkling and opacity of the anterior capsule” value [2, 4] of the same compound?
A: only slight wrinkling of the anterior capsule and opacity of the periphery thereof

Q: And the “opacity and wrinkling of the anterior capsule” value ([2]; animal A, eye drop, after 28 days from the operation)?
A: slight opacity and wrinkling of the anterior capsule

Q: And the posterior synechia ([2]; animal B, oral)?
A: did not cause any posterior synechia

Q: And the “fibrin deposition in the anterior chamber” value ([2]; animal B, oral 1 ml/dose/day of 0.5 μg/ml solution)?
A: very low as compared with that observed for the animal C

Q: What about the “opacity and wrinkling of the anterior capsule” value ([2]; animal B, oral, after 28 days from the operation) of the same compound?
A: slight opacity and wrinkling of the anterior capsule

Q: For `C=C1/C(=C\C=C2/CCC[C@]3(C)[C@@H]([C@H](C)CCCC(C)C)CC[C@@H]23)C[C@@H](O)C[C@@H]1O` [alpha calcidol, 1α-monohydroxy vitamin D], which “opacity of the laser-irradiated site under the slit lamp microscope” value ([3]; Group A, right eye, eye drop 0.01 μg/drop (0.5 μg/ml), one drop/dose/day from 24 hours after irradiation, observed after 4, 7 and 12 days, versus BSS control (Group B)) is on record?
A: quite slight opacity at the peripheral edge of the laser-irradiated site

Q: What about the “piling up growth of the corneal epithelial cells, sliced cornea under a light microscope” value ([3]; Group A, right eye, eye drop 0.01 μg/drop, one drop/dose/day, control Group B ran up to 10 layers) of the same compound?
A: not observed such tendency as piling up growth

Q: What about the “side effect (bleeding, fibrin-deposition, corneal haze/opacity, intraocular inflammation)” value ([3]; Test Example 1, eye drop) of the same compound?
A: not observed any side effect
